Source: ChEMBL document CHEMBL4602687, “Dual Binding to Orthosteric and Allosteric Sites Enhances the Anticancer Activity of a TRAP1-Targeting Drug” (J Med Chem, 2020)
pIC50: −log10 of the molar value.

Key:
Heat shock protein HSP90 [1] = molecular target: T1, Heat shock protein HSP90 (Homo sapiens, UniProt P07900+P08238); test: Inhibition of HSP90 in human PC3 cells at 5 uM measured after 2 to 12 hrs by Western blot analysis; type: cell-based; details: pc-3, 5 µM
Hepatocyte = test: Cytotoxicity against mouse hepatocytes assessed as reduction in cell viability up to 3 uM measured after 24 hrs by MTT assay; type: cell-based
Heat shock protein HSP90 [2] = molecular target: T1, Heat shock protein HSP90; test: Inhibition of HSP90 in human PC3 cells assessed as change in Cdk4 expression at 5 uM measured after 2 to 12 hrs by Western blot analysis; type: cell-based; details: pc-3, 5 µM
[3] = molecular target: T2, Heat shock protein 75 kDa, mitochondrial (Homo sapiens, UniProt Q12931); test: Inhibition of PU-H71-FITC binding to recombinant wild-type human TRAP1 expressed in Escherichia coli BL21 (DE3) measured after 2 hrs by fluorescence polarization assay
T2 sequence (Q12931 whole entry): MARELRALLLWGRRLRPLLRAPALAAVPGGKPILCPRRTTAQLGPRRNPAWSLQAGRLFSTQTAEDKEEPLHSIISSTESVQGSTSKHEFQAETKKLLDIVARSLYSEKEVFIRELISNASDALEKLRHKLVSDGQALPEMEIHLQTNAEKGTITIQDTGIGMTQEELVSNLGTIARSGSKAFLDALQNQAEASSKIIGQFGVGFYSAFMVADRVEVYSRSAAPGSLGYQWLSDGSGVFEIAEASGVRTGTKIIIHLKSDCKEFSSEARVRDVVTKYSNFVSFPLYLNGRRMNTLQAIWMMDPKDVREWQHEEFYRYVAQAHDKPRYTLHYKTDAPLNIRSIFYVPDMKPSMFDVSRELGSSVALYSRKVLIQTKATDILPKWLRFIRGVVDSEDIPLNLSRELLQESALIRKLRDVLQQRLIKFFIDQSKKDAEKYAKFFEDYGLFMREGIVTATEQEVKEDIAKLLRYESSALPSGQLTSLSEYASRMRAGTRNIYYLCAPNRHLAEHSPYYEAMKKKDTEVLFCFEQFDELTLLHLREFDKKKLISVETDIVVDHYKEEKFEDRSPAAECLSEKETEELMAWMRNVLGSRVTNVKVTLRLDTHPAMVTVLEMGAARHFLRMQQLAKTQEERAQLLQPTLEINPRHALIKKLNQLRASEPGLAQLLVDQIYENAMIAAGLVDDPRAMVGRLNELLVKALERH

Heat shock protein HSP90 [4] = molecular target: T1, Heat shock protein HSP90; test: Inhibition of HSP90 in human PC3 cells assessed as change in AKT expression at 5 uM measured after 2 to 12 hrs by Western blot analysis; type: cell-based; details: pc-3, 5 µM
Heat shock protein HSP90 [5] = molecular target: T1, Heat shock protein HSP90; test: Inhibition of HSP90 in human PC3 cells assessed as change in Hsp70 expression at 5 uM measured after 2 to 12 hrs by Western blot analysis; type: cell-based; details: pc-3, 5 µM
Heat shock protein HSP90 [6] = molecular target: T1, Heat shock protein HSP90; test: Inhibition of HSP90 in human PC3 cells assessed as change in Chk1 expression at 5 uM measured after 2 to 12 hrs by Western blot analysis; type: cell-based; details: pc-3, 5 µM

inhibition (INH) (Heat shock protein HSP90 [1]) | inhibition (INH) (Heat shock protein HSP90 [2]) | pIC50 [3] | inhibition (INH) (Heat shock protein HSP90 [4]) | inhibition (INH) (Heat shock protein HSP90 [5]) | inhibition (INH) (Heat shock protein HSP90 [6]) | Compound | Activity (Hepatocyte)
Not Active | Not Active | 5.73 | Not Active | Not Active | Not Active | Nc1ncnc2c1nc(Sc1cc3c(cc1I)OCO3)n2CCCCCCCCCC[P+](c1ccccc1)(c1ccccc1)c1ccccc1.[Br-] | Non-Toxic
– | – | 6.06 | – | – | – | Nc1ncnc2c1nc(Sc1cc3c(cc1I)OCO3)n2CCCCCCCC[P+](c1ccccc1)(c1ccccc1)c1ccccc1 | –
– | – | 6.10 | – | – | – | Nc1ncnc2c1nc(Sc1cc3c(cc1I)OCO3)n2CCCCCC[P+](c1ccccc1)(c1ccccc1)c1ccccc1 | –
